How the values were obtained:
[1] = system: CCl4-treated rat model; assay: Hepatoprotective activity in CCl4-treated rat model; format: in vivo, male Wistar rats; conditions: CCl4-treated rats
Description: Hepatoprotective activity was determined for both the microsphere formulation and i.v. solution administration of 4-chlorocurcumin following a protocol reported previously. Another set of rats were used in this study. Male rats weighing around 150-200 g was used in this study. For this experiment, animals were divided into 6 different groups. Group I were normal control. Group II was given carbontetrachloride regularly and it served as toxic control. Group II received CCl4 at a dose of 0.7 ml/kg by intraperitonial route on the 3rd, 6th and 9th day consisting of mixture of CCl4 and olive oil (25:75). Group III received the drug in the solution form by i.v. route. Group III received 4-chlorocurcumin dissolved in PEG 600 solution at a rationale of 1 mg/ml by intravenous route twice daily. Group IV received 4-chlorocurcumin microsphere formulation one time in the beginning of the experiment. Microspheres 2 was administered for this purpose. A 20 mg of formulation was dispersed in 1 ml normal saline and was administered intraperitoneally. Group V were injected with placebo microspheres and Group VI served as a control for PEG injected and was injected 1 ml of PEG solution twice a day. Serum samples were procured from the blood samples collected from common carotid artery on the final day of experimentation prior to sacrifice of the animal. The blood samples collected were subjected to centrifugation for 15 min at 3000 rpm and the serum separated was transferred into fresh empty microcentrifuge tube and was stored in deep freeze for pharmacodynamic evaluation. Hepatoprotective activity was quantified by the activity of SGOT, SGPT levels present in the serum samples and the method used for quantification was modified IFFC method. Subsequently, livers of the all rats in each group were further sent for histopathological studies and for this purpose at the end of the study the rats were sacrificed, the livers were separated carefully and were transferred to sterile containers having formalin solution. Liver sections were subsequently prepared using a previously published method.

[2] = Pharmacokinetics of 4-chlorocurcumin in rats; format: in vivo; conditions: male, Wistar, blood, iv; rat, i.v. solution, 2.8 mg
Description: From the data of the release studies, a suitable microsphere formulation to be used further in the rat studies was selected. For in vivo characterization, in vivo drug release (pharmacokinetic study) and reduction in hepatoprotective activity in a CCl4-treated rat model were determined. Pharmacokinetics of the formulation was studied in male Wistar rats. After procurement of the rats, these were acclimatized for 10 days prior to the conduction of the experiment. Rats were injected one time with microsphere suspension containing 2.8 mg of active drug intraperitoneally. A 20 mg microsphere suspension was dispersed in 1 ml normal saline and was injected. Parallel to the microsphere administration, another dose of the drug in the form of solution was administered via i.v. route in another set of rats. In this case drug was administered at an equivalent dose of 2.8 mg. Blood was periodically collected from retroorbital sinus and assayed for the drug using a HPLC standard developed using a previously reported method. The mobile phase consisted of methanol:water at a ratio of 70:30. The retention times and the peak areas were noted. Extraction efficiency for the selected system was determined. The following possible pharmacokinetic parameters for both iv solution administration as well as ip microsphere administration were determined using WinNonlin: Ka, ke, Vd, elimination t1/2, absorption t1/2, Tmax, Cmax. Further, using Wagner-Nelson method cumulative amount of drug released into the plasma was determined.

[3] = serum, final day, solution i.v. twice daily, microspheres 20 mg i.p. one time

With `O=C(/C=C/c1ccc(Cl)cc1)CC(=O)/C=C/c1ccc(Cl)cc1` [4-chlorocurcumin] the “Hepatoprotective activity (reversal of SGOT and SGPT versus toxic control CCl4)” value [1] was “although statistically significant, was not reduced to reach the normal levels”, the Histology of liver ([1]; end of study) was “Normal liver” and the SGOT [1, 3] was 42.10±1.5 u/1. For the same molecule, the SGPT [1, 3] was 25.7±1.8 u/1, the “Body weights on day 9” value ([1]; solution i.v. twice daily, microspheres 20 mg i.p. one time) was 190 ± 18 g and the AUC [2] was 227 µg·h/mL. It also gave a Cmax [2] of 196 µg/mL, a Tmax [2] of 0.5 h and a Vd [2] of 0.0235 L. It also gave a clearance [2] of 0.137 mL/min and a half-life [2] of 1.99 h.
